# Measured values published in ChEMBL document CHEMBL3045472, “Synthesis and evaluation of some novel methylene-bridged aryl semicarbazones as potential anticonvulsant agents” (Med Chem Res, 2012).
# What was measured:
# [1] = test system: Mus musculus; test: Anticonvulsant activity in pentylenetetrazole-induced Mus musculus albino (mouse) seizure model assessed as survival at 300 mg/kg, ip administered 30 min followed by pentylenetetrazole induction measured for 30 min relative to control; type: functional; settings: 0.5 h, route intraperitoneal
# [2] = test system: Mus musculus; test: Anticonvulsant activity in Mus musculus albino (mouse) assessed as protection against pentylenetetrazole-induced seizure at 300 mg/kg, ip administered 30 min followed by pentylenetetrazole induction measured for 30 min relative to control; type: functional; settings: route intraperitoneal
# [3] = test system: Mus musculus; test: Anticonvulsant activity in Mus musculus albino (mouse) assessed as increase in onset of pentylenetetrazole-induced seizure at 100 mg/kg, ip administered 30 min followed by pentylenetetrazole induction measured for 30 min (reference value: 184 +/- 32 secs); type: functional; settings: route intraperitoneal
# [4] = test system: Mus musculus; test: Anticonvulsant activity in Mus musculus albino (mouse) assessed as decrease in pentylenetetrazole-induced total seizure time at 300 mg/kg, ip administered 30 min followed by pentylenetetrazole induction measured for 30 min (reference value: 9.9 +/- 1.3 secs); type: functional; settings: route intraperitoneal
# [5] = test system: Mus musculus; test: Anticonvulsant activity in pentylenetetrazole-induced Mus musculus albino (mouse) seizure model assessed as death time at 300 mg/kg, ip administered 30 min followed by pentylenetetrazole induction measured for 30 min (reference value: 416 +/- 58.2 secs); type: functional; settings: route intraperitoneal
# [6] = test system: Mus musculus; test: Anticonvulsant activity in pentylenetetrazole-induced Mus musculus albino (mouse) seizure model assessed as survival at 100 mg/kg, ip administered 30 min followed by pentylenetetrazole induction measured for 30 min relative to control; type: functional; settings: 0.5 h, route intraperitoneal
# [7] = test system: Mus musculus; test: Anticonvulsant activity in pentylenetetrazole-induced Mus musculus albino (mouse) seizure model assessed as death time at 100 mg/kg, ip administered 30 min followed by pentylenetetrazole induction measured for 30 min (reference value: 416 +/- 58.2 secs); type: functional; settings: route intraperitoneal
# [8] = test system: Mus musculus; test: Anticonvulsant activity in Mus musculus albino (mouse) assessed as increase in onset of pentylenetetrazole-induced seizure at 300 mg/kg, ip administered 30 min followed by pentylenetetrazole induction measured for 30 min (reference value: 184 +/- 32 secs); type: functional; settings: route intraperitoneal
# [9] = test system: Mus musculus; test: Anticonvulsant activity in Mus musculus albino (mouse) assessed as decrease in pentylenetetrazole-induced total seizure time at 100 mg/kg, ip administered 30 min followed by pentylenetetrazole induction measured for 30 min (reference value: 9.9 +/- 1.3 secs); type: functional; settings: route intraperitoneal
# [10] = test system: Mus musculus; test: Anticonvulsant activity in Mus musculus albino (mouse) assessed as protection against pentylenetetrazole-induced seizure at 100 mg/kg, ip administered 30 min followed by pentylenetetrazole induction measured for 30 min relative to control; type: functional; settings: route intraperitoneal
# [11] = test system: Mus musculus; test: Anticonvulsant activity in pentylenetetrazole-induced Mus musculus albino (mouse) seizure model assessed as survival at 50 mg/kg, ip administered 30 min followed by pentylenetetrazole induction measured for 30 min relative to control; type: functional; settings: 0.5 h, route intraperitoneal
# [12] = test system: Mus musculus; test: Anticonvulsant activity in Mus musculus albino (mouse) assessed as decrease in pentylenetetrazole-induced total seizure time at 50 mg/kg, ip administered 30 min followed by pentylenetetrazole induction measured for 30 min (reference value: 9.9 +/- 1.3 secs); type: functional; settings: route intraperitoneal
# [13] = test system: Mus musculus; test: Anticonvulsant activity in Mus musculus albino (mouse) assessed as protection against pentylenetetrazole-induced seizure at 50 mg/kg, ip administered 30 min followed by pentylenetetrazole induction measured for 30 min relative to control; type: functional; settings: route intraperitoneal
# [14] = test system: Mus musculus; test: Anticonvulsant activity in Mus musculus albino (mouse) assessed as increase in onset of pentylenetetrazole-induced seizure at 50 mg/kg, ip administered 30 min followed by pentylenetetrazole induction measured for 30 min (reference value: 184 +/- 32 secs); type: functional; settings: route intraperitoneal
# [15] = test system: Mus musculus; test: Anticonvulsant activity in pentylenetetrazole-induced Mus musculus albino (mouse) seizure model assessed as death time at 50 mg/kg, ip administered 30 min followed by pentylenetetrazole induction measured for 30 min (reference value: 416 +/- 58.2 secs); type: functional; settings: route intraperitoneal
# [16] = test system: Mus musculus; test: Anticonvulsant activity in Mus musculus albino (mouse) assessed as protection against pentylenetetrazole-induced seizure at 15 mg/kg, ip administered 30 min followed by pentylenetetrazole induction measured for 30 min relative to control; type: functional; settings: route intraperitoneal
# [17] = test system: Mus musculus; test: Neurotoxicity in Mus musculus albino (mouse) assessed as minimal motor impairment at 15 mg/kg, ip measured for 180 secs by rotorod test; type: toxicity, organism-based; parameters: dose 15 mg/kg, route intraperitoneal; settings: in vivo, 0.05 h
# [18] = test system: Mus musculus; test: Anticonvulsant activity in pentylenetetrazole-induced Mus musculus albino (mouse) seizure model assessed as death time at 15 mg/kg, ip administered 30 min followed by pentylenetetrazole induction measured for 30 min (reference value: 416 +/- 58.2 secs); type: functional; settings: route intraperitoneal
# [19] = test system: Mus musculus; test: Anticonvulsant activity in pentylenetetrazole-induced Mus musculus albino (mouse) seizure model assessed as survival at 15 mg/kg, ip administered 30 min followed by pentylenetetrazole induction measured for 30 min relative to control; type: functional; settings: 0.5 h, route intraperitoneal
# [20] = test system: Mus musculus; test: Anticonvulsant activity in Mus musculus albino (mouse) assessed as decrease in pentylenetetrazole-induced total seizure time at 15 mg/kg, ip administered 30 min followed by pentylenetetrazole induction measured for 30 min (reference value: 9.9 +/- 1.3 secs); type: functional; settings: route intraperitoneal
# [21] = test system: Mus musculus; test: Anticonvulsant activity in Mus musculus albino (mouse) assessed as increase in onset of pentylenetetrazole-induced seizure at 15 mg/kg, ip administered 30 min followed by pentylenetetrazole induction measured for 30 min (reference value: 184 +/- 32 secs); type: functional; settings: route intraperitoneal
# [22] = test system: Mus musculus; test: Anticonvulsant activity in Mus musculus albino (mouse) assessed as decrease in pentylenetetrazole-induced total seizure time at 220 mg/kg, ip administered 30 min followed by pentylenetetrazole induction measured for 30 min (reference value: 9.9 +/- 1.3 secs); type: functional; settings: route intraperitoneal
# [23] = test system: Mus musculus; test: Anticonvulsant activity in pentylenetetrazole-induced Mus musculus albino (mouse) seizure model assessed as death time at 220 mg/kg, ip administered 30 min followed by pentylenetetrazole induction measured for 30 min (reference value: 416 +/- 58.2 secs); type: functional; settings: route intraperitoneal
# [24] = test system: Mus musculus; test: Anticonvulsant activity in Mus musculus albino (mouse) assessed as protection against pentylenetetrazole-induced seizure at 220 mg/kg, ip administered 30 min followed by pentylenetetrazole induction measured for 30 min relative to control; type: functional; settings: route intraperitoneal
# [25] = test system: Mus musculus; test: Neurotoxicity in Mus musculus albino (mouse) assessed as minimal motor impairment at 220 mg/kg, ip measured for 180 secs by rotorod test; type: toxicity, organism-based; parameters: dose 220 mg/kg, route intraperitoneal; settings: in vivo, 0.05 h
# [26] = test system: Mus musculus; test: Anticonvulsant activity in Mus musculus albino (mouse) assessed as increase in onset of pentylenetetrazole-induced seizure at 220 mg/kg, ip administered 30 min followed by pentylenetetrazole induction measured for 30 min (reference value: 184 +/- 32 secs); type: functional; settings: route intraperitoneal
# [27] = test system: Mus musculus; test: Anticonvulsant activity in pentylenetetrazole-induced Mus musculus albino (mouse) seizure model assessed as survival at 220 mg/kg, ip administered 30 min followed by pentylenetetrazole induction measured for 30 min relative to control; type: functional; settings: 0.5 h, route intraperitoneal
# [28] = test system: Mus musculus; test: Neurotoxicity in Mus musculus albino (mouse) assessed as minimal motor impairment at 300 mg/kg, ip measured for 180 secs by rotorod test; type: toxicity, organism-based; parameters: dose 300 mg/kg, route intraperitoneal; settings: in vivo, 0.05 h
SMILES,survival at 300 mg/kg [1] [%],Activity [2] [%],Time [3] [s],Time [4] [s],Time [5] [s],survival at 100 mg/kg [6] [%],Time [7] [s],Time [8] [s],Time [9] [s],Activity [10] [%],further results
CCOc1ccc(NCC(=O)N/N=C/c2ccccc2[N+](=O)[O-])cc1,14,14,275,6.8,734,12,1011,626,8.7,0,
CCOc1ccc(NCC(=O)N/N=C(/C)c2ccccc2)cc1,0,0,243,5.8,483,0,310,414,5.9,0,
O=C(CNc1ccc(Br)cc1)N/N=C/c1ccccc1O,100,38,724,6.6,1800,100,1800,884,7.7,25,survival at 50 mg/kg [11]: 25%; Time [12]: 8.6 s; Activity [13]: 25%; Time [14]: 562 s; Time [15]: 832 s
O=C(CNc1ccc(Br)cc1)N/N=C/c1ccccc1Cl,29,14,403,4.5,781,25,885,514,6.4,0,
CC(C)=NNC(=O)CNc1ccc(Br)cc1,64,45,224,3.3,1428,25,945,1098,10,0,
CCOc1ccc(NCC(=O)N/N=C/c2ccccc2Cl)cc1,12,0,436,9.3,651,43,1189,590,8.5,14,
CCOc1ccc(NCC(=O)NN=C(C)C)cc1,0,0,373,4.2,606,0,623,425,4.9,0,
O=C(CNc1ccc(Br)cc1)N/N=C/c1ccc([N+](=O)[O-])cc1,62,38,640,3.8,1456,62,1400,809,6.1,0,survival at 50 mg/kg [11]: 50%; Time [12]: 3.7 s; Activity [13]: 16%; Time [14]: 596 s; Time [15]: 1122 s
O=C(CNc1ccc(Br)cc1)N/N=C/c1ccccc1[N+](=O)[O-],33,33,144,2.8,1265,38,897,1073,11,0,
CCC1(c2ccccc2)C(=O)NC(=O)NC1=O [PHENOBARBITAL],,,,,,,,,,,Activity [16]: 50%; Activity [17]: Non-toxic; Time [18]: 1800 s; survival at 15 mg/kg [19]: 100%; Time [20]: 2.2 s; Time [21]: 1088 s
CCCC(CCC)C(=O)[O-].[Na+] [VALPROATE SODIUM],,,,,,,,,,,Time [22]: 2.3 s; Time [23]: 1800 s; Activity [24]: 50%; Activity [25]: Non-toxic; Time [26]: 1207 s; survival at 220 mg/kg [27]: 100%
CCOc1ccc(NCC(=O)N/N=C/c2ccc([N+](=O)[O-])cc2)cc1,44,22,603,5.2,1286,50,1137,885,5.3,16,survival at 50 mg/kg [11]: 67%; Time [12]: 7.3 s; Activity [13]: 16%; Time [14]: 643 s; Activity [28]: Toxic; Time [15]: 1528 s
CCOc1ccc(NCC(=O)N/N=C/c2ccccc2O)cc1,0,0,275,6.4,896,12,659,616,11,0,survival at 50 mg/kg [11]: 33%; Time [12]: 5.2 s; Activity [13]: 22%; Time [14]: 903 s; Time [15]: 1055 s
C/C(=N\NC(=O)CNc1ccc(Br)cc1)c1ccccc1,50,38,498,3.1,1161,86,1577,915,11,14,
